Test results: US20150366836A1, “METHOD AND PHARMACEUTICAL COMPOSITION FOR TREATING COLORECTAL CANCER” (National Dong Hua University, priority 2014, published 2015)

Tests used:
Caco2 cells [1] = assay: MTT assay cell viability, Caco2 cells; type: cell-based; details: Homo sapiens, Caco-2; Caco2 cells, 48 hr treatment
Procedure: (§1) Two cell lines were used in this study, Caco2 cells and HT-29 cells. Both of them are colorectal cancer cells. Caco2 cells and HT-29 cells were maintained in DMEM (or RPMI) supplemented with 20% or 10% fetal bovine serum (FBS; GIBCO), pH 7.4 at 37° C. with continuous circulation of 5% CO2 incubator. The medium was changed every 2 days and the cells were trypsinized using trypsin/EDTA when reaching 80%-90% confluence.
(§2) In this example, the effects of HCD, PG, and 5-FU on the viability of Caco2 cells and HT-29 cells were examined. The MTT assay was employed for this purpose. The MTT (3-(4-,5-dimethylthiazol-2-yl)-2,5-diphenyltetrazolium bromide) assay is a common colorimetric method in the field for cell viability analysis. MTT (yellow tetrazolium salt) is reduced to a purple formazan by living cells and detection to the purple formazan can be calculated as the cell viability.
(§3) Briefly, cells (Caco2 or HT-29) were seeded in 96-well plate (7×10^3 cell per well) and incubated overnight (37° C., 5% CO2).
(§4) On the other hand, in the pretreatment analysis, cells (Caco2 or HT-29) were seeded in 96-well plate (7×10^3 cell per well) and incubated overnight (37° C., 5% CO2). In according to the treatments listed in the Table 1, Cells were pre-treated by HCD or PG for 6, 12, 24, 36, or 48 hr and then were treated by 5-FU for additional 24 hr.

HT-29 cells [2] = assay: MTT assay cell viability, HT-29 cells; type: cell-based; details: Homo sapiens; HT-29 cells, 36 hr treatment
Procedure: as §1, §2, §3, §4

Caco2 cells [3] = assay: Cell cycle analysis by flow cytometer (PI staining), Caco2 cells; type: cell-based
Procedure: (§5) The results of Example 2 in cell viability hinted the effects of HCD, PG, and 5-FU on arresting cell cycle. In this example, the phase of cell cycle of Caco2 and HT-29 cells after the treatment listed in Table 1 was determined by flow cytometer. Briefly, 7×10^4 cells per well were inoculated in 12-wells plate and incubated overnight at 37° C., 5% CO2. Then, cells were treated according to the treatment listed in Table 1 by indicated time period. After treatment, cells were harvested by trypsin and fixed with 70% ethanol at −20° C. for at least 3 hr. The cells were washed in cold PBS twice and then incubated with 1 mL (v/v) staining solution (20 μg/mL propidium iodide (PI), 0.1% Triton X-100, 0.2 mg/mL Rnase) at 37° C. for 30 minutes. Lastly, cells were analyzed by flow cytometer (Cytomics™ FC500, Backman, Fullerton, Calif., USA). Data from 10,000 cells were collected for each experimental group.

HT-29 cells [4] = assay: Cell cycle analysis by flow cytometer (PI staining), HT-29 cells; type: cell-based
Procedure: as §5

[5] = test system: mouse bearing inflammatory bowel disease (IBD), AOM/DSS induced; assay: Mouse model bearing IBD (AOM/DSS induced), body weight and H&E staining of intestine; type: in vivo, C57/BL6 mice
Procedure: The animal experiments were approved by the National Dong-Hwa University Animal Ethics Committee and the experimental protocols were used according to the “Guide for the Care and Use of Laboratory Animals” of National Dong-Hwa University. On day 0, C57/BL6 mice (6-8 weeks old) were weighted and injected (intraperitoneal; i.p.) with 10 mg/kg body weight of azoxymethane (AOM) and then fed with 2% Dextran sodium sulfate solution (DSS solution) via water every day for 7 days. On day 8, the 2% DSS solution was changed to normal water for another 7 days. The cycle of DSS solution and water was repeated and the induction procedure was completed on day 35.
After the establishment of IBD in the experimental mice (on day 35), the mice were injected (i.p.) with 5-FU (15 mg/kg body weight) or HCD (0.64, 1.6, or 6.4 mg/kg body weight) once every three days for additional 30 days. Then, the mice were sacrificed. The colon, spleen, liver, and kidney thereof were immediately removed, observed, and further examined by H&E staining.

For O=c1[nH]cc(F)c(=O)[nH]1 [5-FU, 5-Fluorouracil], the IC50 (Caco2 cells [1]) was 100 µM, the IC50 (HT-29 cells [2]) was 50 µM and the “cell cycle arrest at sub-G1 phase vs control (in words)” value (Caco2 cells [3]; Caco2) was “increased cell cycle arrest at sub-G1 phase”. The “G0/G1 (%)” value (Caco2 cells [3]; Caco2, 0.5 μM, 36 hr) was 46.15 ± 1.34 %, the “G2/M (%)” value (Caco2 cells [3]; Caco2, 0.5 μM, 36 hr) was 8.65 ± 1.48 % and the “S (%)” value (Caco2 cells [3]; Caco2, 0.5 μM, 36 hr) was 20.05 ± 1.91%. The “Sub G1 (%)” value (Caco2 cells [3]; Caco2, 0.5 μM, 36 hr) was 21.8 ± 5.09%, the “G0/G1 (%)” value (Caco2 cells [3]; Caco2, 0.5 μM, 48 hr) was 46.15 ± 1.34% and the “G2/M (%)” value (Caco2 cells [3]; Caco2, 0.5 μM, 48 hr) was 1.5 ± 0.14 %. For the same compound, the “S (%)” value (Caco2 cells [3]; Caco2, 0.5 μM, 48 hr) was 13.65 ± 1.34%, the “Sub G1 (%)” value (Caco2 cells [3]; Caco2, 0.5 μM, 48 hr) was 20.9 ± 3.25% and the “G0/G1 (%)” value (Caco2 cells [3]; Caco2, 2 μM, 36 hr) was 36.65 ± 1.06 %. The “G2/M (%)” value (Caco2 cells [3]; Caco2, 2 μM, 36 hr) was 1.85 ± 0.5 %, the “S (%)” value (Caco2 cells [3]; Caco2, 2 μM, 36 hr) was 17.1 ± 2.12% and the “Sub G1 (%)” value (Caco2 cells [3]; Caco2, 2 μM, 36 hr) was 40.1 ± 1.69 %. For the same compound, the “G0/G1 (%)” value (Caco2 cells [3]; Caco2, 2 μM, 48 hr) was 35.35 ± 2.47 %, the “G2/M (%)” value (Caco2 cells [3]; Caco2, 2 μM, 48 hr) was 3.55 ± 3.89 % and the “S (%)” value (Caco2 cells [3]; Caco2, 2 μM, 48 hr) was 18.05 ± 10.11%. For the same compound, the “Sub G1 (%)” value (Caco2 cells [3]; Caco2, 2 μM, 48 hr) was 37.55 ± 14.64 %, the “G0/G1 (%)” value (Caco2 cells [3]; Caco2, 5 μM, 36 hr) was 39.1 ± 5.66 % and the “G2/M (%)” value (Caco2 cells [3]; Caco2, 5 μM, 36 hr) was 1.05 ± 0.21%. For the same compound, the “S (%)” value (Caco2 cells [3]; Caco2, 5 μM, 36 hr) was 12.5 ± 0.71%, the “Sub G1 (%)” value (Caco2 cells [3]; Caco2, 5 μM, 36 hr) was 42.6 ± 5.37 % and the “G0/G1 (%)” value (Caco2 cells [3]; Caco2, 5 μM, 48 hr) was 36.7 ± 8.06 %. For the same compound, the “G2/M (%)” value (Caco2 cells [3]; Caco2, 5 μM, 48 hr) was 2.7 ± 2.95 %, the “S (%)” value (Caco2 cells [3]; Caco2, 5 μM, 48 hr) was 17.5 ± 10.47% and the “Sub G1 (%)” value (Caco2 cells [3]; Caco2, 5 μM, 48 hr) was 38.3 ± 24.47 %. For the same compound, the “cell cycle arrest at sub-G1 phase vs control (in words)” value (HT-29 cells [4]; HT-29) was “increased cell cycle arrest at sub-G1 phase”, the “G0/G1 (%)” value (HT-29 cells [4]; HT-29, 0.5 μM, 24 hr) was 40.05 ± 0.35 % and the “G2/M (%)” value (HT-29 cells [4]; HT-29, 0.5 μM, 24 hr) was 17.45 ± 3.04%. For the same compound, the “S (%)” value (HT-29 cells [4]; HT-29, 0.5 μM, 24 hr) was 28.65 ± 1.20 %, the “Sub G1 (%)” value (HT-29 cells [4]; HT-29, 0.5 μM, 24 hr) was 6.75 ± 0.35% and the “G0/G1 (%)” value (HT-29 cells [4]; HT-29, 0.5 μM, 36 hr) was 46.15 ± 1.34 %. The “G2/M (%)” value (HT-29 cells [4]; HT-29, 0.5 μM, 36 hr) was 8.65 ± 1.48 %, the “S (%)” value (HT-29 cells [4]; HT-29, 0.5 μM, 36 hr) was 20.05 ± 1.91% and the “Sub G1 (%)” value (HT-29 cells [4]; HT-29, 0.5 μM, 36 hr) was 21.8 ± 5.09%. For the same compound, the “G0/G1 (%)” value (HT-29 cells [4]; HT-29, 2 μM, 24 hr) was 50.3 ± 0.85%, the “G2/M (%)” value (HT-29 cells [4]; HT-29, 2 μM, 24 hr) was 9.15 ± 0.78 % and the “S (%)” value (HT-29 cells [4]; HT-29, 2 μM, 24 hr) was 26.15 ± 1.77 %. For the same compound, the “Sub G1 (%)” value (HT-29 cells [4]; HT-29, 2 μM, 24 hr) was 7.75 ± 0.21%, the “G0/G1 (%)” value (HT-29 cells [4]; HT-29, 2 μM, 36 hr) was 36.65 ± 1.06 % and the “G2/M (%)” value (HT-29 cells [4]; HT-29, 2 μM, 36 hr) was 1.85 ± 0.5 %. For the same compound, the “S (%)” value (HT-29 cells [4]; HT-29, 2 μM, 36 hr) was 17.1 ± 2.12%, the “Sub G1 (%)” value (HT-29 cells [4]; HT-29, 2 μM, 36 hr) was 40.1 ± 1.69 % and the “G0/G1 (%)” value (HT-29 cells [4]; HT-29, 5 μM, 24 hr) was 56.65 ± 6.01%. For the same compound, the “G2/M (%)” value (HT-29 cells [4]; HT-29, 5 μM, 24 hr) was 9.4 ± 3.68 %, the “S (%)” value (HT-29 cells [4]; HT-29, 5 μM, 24 hr) was 21.45 ± 2.33 % and the “Sub G1 (%)” value (HT-29 cells [4]; HT-29, 5 μM, 24 hr) was 6.85 ± 0.64%. The “G0/G1 (%)” value (HT-29 cells [4]; HT-29, 5 μM, 36 hr) was 39.1 ± 5.66 %, the “G2/M (%)” value (HT-29 cells [4]; HT-29, 5 μM, 36 hr) was 1.05 ± 0.21% and the “S (%)” value (HT-29 cells [4]; HT-29, 5 μM, 36 hr) was 12.5 ± 0.71%. The “Sub G1 (%)” value (HT-29 cells [4]; HT-29, 5 μM, 36 hr) was 42.6 ± 5.37 %, the “intestine villus arrangement (H&E staining)” value ([5]; 15 mg/kg body weight i.p.) was “irregular arrangement of villus” and the “lymph node (H&E staining)” value ([5]; 15 mg/kg body weight i.p.) was “enlarged”. The body weight ([5]; 15 mg/kg body weight i.p. once every three days, 30 days) was “initially reduced”.
